Assay results reported in US20240000979A1, “METHODS AND COMPOSITIONS FOR SYNERGISTIC UPTAKE AND RETENTION OF SMALL MOLECULE LIGANDS” (CORNELL UNIVERSITY, priority 2020, published 2024).

Assays:
[1] = system: LNCaP tumors; assay: Tumor harvest at necropsy and direct scintillation counting of tumor radioactivity; format: in vivo, mice; settings: Day 3 (72 hours) tumor harvest
Excerpt: The dotted line represents the summation of the counts in the 617-Lu^177 plus the J591-Lu^177 tumors. […] To confirm the accuracy of this experiment which was based on […] imaging, determinations were done by tumor harvest at necropsy followed by direct counting of the radioactivity within the previously imaged tumors and calculating counts per mg of tumor.
At the Day 3 tumor harvest, the mean counts per mg tumor in each of the groups is shown in the table below (and FIG. 2) further confirming the imaging results.
In this animal study, which is a continuation of the imaging study described in Example 1, when the imaging was completed at 72 hours, the animals were necropsied, the tumors harvested, weighed and counted in a scintillation counter to derive the amount of radioactivity per mg (cpm/mg) of tumor. The tumors treated with J591-Lu^177 had 2.2-fold the counts of those tumors that had gotten PSMA-617-Lu^177 alone (FIG. 2). The tumors treated with the combination had counts 48% greater than the sum of each of its individual components, meeting the definition of synergy (FIG. 2). The physical counting of the tumor radioactivity confirmed the results obtained by imaging.

[2] = system: LNCaP tumors; assay: SPECT/CT imaging of radioactivity within tumors after injection; format: in vivo, mice; settings: for activity concentration in tumor (imaging): mean of group, LNCaP tumors in mice
Experimental: In this animal study, three groups of mice were implanted with LNCaP tumors (in Matrigel) with 6-8 tumors per group. After the tumors were established, one group was injected with J591-Lu^177, a 2nd group with PSMA-617-Lu^177 and a 3rd group got both PSMA617-Lu^177 and J591-Lu^177.
Radiolabeling both PSMA-617 and J591 allowed both to be tracked individually as well as their total when combined. All mice were imaged in a Siemens Inveon dedicated animal multimodality SPECT/CT. Coaxial CT images were acquired for anatomical and attenuation information prior to each SPECT acquisition to measure the radioactivity within the tumors at the 1, 4, 24 and 72 hour time points after injection. SPECT images were reconstructed using the Siemens OSEM algorithm with corrections for scatter, attenuation, decay, and ^177Lu emission spectrum. The mean number of counts within the tumors in each group and time point was calculated and plotted. THe imaging data measured an activity concentration in Bq/mL of tumor: […]

SMILES: O=C(O)CC[C@H](NC(=O)N[C@@H](CCCCNC(=O)[C@H](Cc1ccc2ccccc2c1)NC(=O)[C@H]1CC[C@H](CNC(=O)CN2CCN(CC(=O)O)CCN(CC(=O)O)CCN(CC(=O)O)CC2)CC1)C(=O)O)C(=O)O [PSMA-617-Lu^177]
- Mean cpm/mg tumor [1]: 7.536 cpm/mg
- course of tumor counts over time (imaging, in words) ([2]; 1 to 72 hour, LNCaP tumors): high uptake at 1 hour that then diminished over time
- activity concentration in tumor (imaging) ([2]; 1 hr after injection): 29.55 Bq/mL
- activity concentration in tumor (imaging) ([2]; 4 hr after injection): 30.62 Bq/mL
- activity concentration in tumor (imaging) ([2]; 24 hr after injection): 27.1 Bq/mL
- activity concentration in tumor (imaging) ([2]; 72 hr after injection): 12.48 Bq/mL
